Laboratory results from patent publication US20100120700A1, “METHODS AND COMPOSITIONS FOR TREATING CERVICAL CANCER” (priority 2000, published 2010).
Values joined by “and” are separate entries in the source; they are usually repeats but may differ in a detail not shown here. Equal entries are not always repeated.

How the values were obtained:
DLG-6 #333.1 domain 1 = experiment: G assay PDZ-PL binding; parameters: species or system human; details: peptide 10 uM, protein 5
Procedure: (§1) (1) A PDZ-domain polypeptide is bound to a surface, e.g. a protein binding surface. In a preferred embodiment, a GST/PDZ fusion protein containing one or more PDZ domains is bound to a polystyrene 96-well plate. […] In one embodiment, the GST/PDZ fusion protein is bound via an anti-GST antibody that is coated onto the 96-well plate. Adequate binding to the plate can be achieved when: • a. 100 uL per well of 5 ug/mL goat anti-GST polyclonal antibody (Pierce) in PBS is added to a polystyrene 96-well plate (e.g., Num Polysorb) at 4° C. for 12 hours. • b. The plate is blocked by addition of 200 uL per well of PBS/BSA for 2 hours at 4° C. • c. The plate is washed 3 times with PBS. • d. 50 uL per well of 5 ug/mL GST/PDZ fusion protein) or, as a negative control, GST polypeptide alone (i.e. not a fusion protein) in PBS/BSA is added to the plate for 2 hours at 4° C. • e. The plate is again washed 3 times with PBS. […]
(§2) (3) The binding of the biotinylated peptide to the GST/PDZ fusion protein surface can be detected using a variety of methods and detectors known to one of skill in the art. In one embodiment, 100 uL per well of 0.5 ug/mL streptavidin-horse radish peroxidase (HRP) conjugate dissolved in BSA/PBS is added and allowed to react for 20 minutes at 4° C. The plate is then washed 5 times with 50 mM Tris pH 8.0 containing 0.2% Tween 20, and developed by addition of 100 uL per well of HRP-substrate solution (TMB, Dako) for 20 minutes at room temperature (RT). The reaction of the HRP and its substrate is terminated by addition of 100 uL per well of 1M sulfuric acid, and the absorbance of each well of the plate is read at 450 nm.
(§3) (4) Specific binding of a PL peptide and a PDZ domain polypeptide is determined by comparing the signal from the well(s) in which the PL peptide and PDZ domain polypeptide are combined, with the background signal(s). The background signal is the signal found in the negative control(s). Typically a specific or selective reaction will be at least twice background signal, more typically more than 5 times background, and most typically 10 or more times the background signal. In addition, a statistically significant reaction will involve multiple measurements of the reaction with the signal and the background differing by at least two standard errors, more typically four standard errors, and most typically six or more standard errors. Correspondingly, a statistical test (e.g. a T-test) comparing repeated measurements of the signal with-repeated measurements of the background will result in a p-value<0.05, more typically a p-value<0.01, and most typically a p-value<0.001 or less. As noted, in an embodiment of the “G” assay, the signal from binding of a given PL peptide to immobilized (surface bound) GST polypeptide alone is one suitable negative control (sometimes referred to as “B 1”). Because all measurement are done in multiples (i.e. at least duplicate) the arithmetic mean (or, equivalently, average.) of several measurements is used in determining the binding, and the standard error of the mean is used in determining the probable error in the measurement of the binding. The standard error of the mean of N measurements equals the square root of the following: the sum of the squares of the difference between each measurement and the mean, divided by the product of (N) and (N−1). Thus, in one embodiment, specific binding of the PDZ protein to the platebound peptide is determined by comparing the mean signal (“mean S”) and standard error of the signal (“SE”) for a particular PL-PDZ combination with the mean B1.
(§4) For convenience, the assay conditions described in this section are referred to as the “G’ assay” and the “G” assay,” with the specific conditions described in the preceding section on G assays being referred to as the “G° assay.” The “G′ assay” is identical to the “G° assay” except at step (2) the peptide concentration is 10 uM instead of 20 uM. […]

FLJ00011 domain 1 = experiment: G assay PDZ-PL binding; parameters: species or system human; details: peptide 10 uM, protein 5
Procedure: as §1, §2, §3, §4

NSP #268.2 domain 1 = experiment: G assay PDZ-PL binding; parameters: species or system human; details: peptide 10 uM, protein 5
Procedure: as §1, §2, §3, §4

TIP1 = target: T1, TIP1 (Homo sapiens, UniProt O14907); experiment: G assay peptide titration (EC50); format: binding; details: E6 peptide titrated against constant GST-PDZ
T1 construct: made in house; host or cells: E. coli (DH5alpha, BL21 or JM109)
T1 sequence (O14907 14-116): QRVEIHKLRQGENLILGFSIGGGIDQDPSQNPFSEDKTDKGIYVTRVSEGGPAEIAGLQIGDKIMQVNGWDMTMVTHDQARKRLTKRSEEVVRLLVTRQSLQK
Procedure: (1) A GST/PDZ fusion protein, as well as GST alone as a negative control, are bound to a surface (e.g., a 96-well plate) and the surface blocked and washed as described supra for the “G” assay.
(2) 50 uL per well of a solution of biotinylated PL peptide (e.g. as shown in TABLE 2) is added to the surface in increasing concentrations in PBS/BSA (e.g. at 0.1 uM, 0.33 uM, 1 uM, 3.3 uM, 10 uM, 33 uM, and 100 uM). In one embodiment, the PL peptide is allowed to react with the bound GST/PDZ fusion protein (as well as the GST alone negative control) for 10 minutes at 4° C. followed by 20 minutes at 25° C. The plate is washed 3 times with ice cold PBS to remove unbound labeled peptide.
(3) The binding of the PL peptide to the immobilized PDZ-domain polypeptide is detected as described supra for the “G” assay.
(4) For each concentration of peptide, the net binding signal is determined by subtracting the binding of the peptide to GST alone from the binding of the peptide to the GST/PDZ fusion protein. […]
Relative binding affinities for the 14 most significant interactions with different PDZ domains were determined by E6 peptide titrations.

Sequence of FLJ00011 domain 1 (as listed by the source): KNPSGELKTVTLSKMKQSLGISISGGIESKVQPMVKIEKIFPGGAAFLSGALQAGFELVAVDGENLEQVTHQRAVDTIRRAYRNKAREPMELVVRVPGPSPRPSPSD

20 mer peptide corresponding to the C-terminus of HPV16 E6 (PDZ ligand), biotinylated in binding assays; ends SSRTRRETQL (SEQ ID NO: 13) [HPV E6 #16]
Ave OD (DLG-6 #333.1 domain 1; A450 nm): 0.3495 | OD S/N (DLG-6 #333.1 domain 1; vs GST only well): 2.04 | Ave OD (FLJ00011 domain 1; A450 nm): 0.423 and 0.8185 | OD S/N (FLJ00011 domain 1; vs GST only well): 2.90 and 3.97 | Ave OD (NSP #268.2 domain 1; A450 nm): 0.724 | OD S/N (NSP #268.2 domain 1; vs GST only well): 2.58 | EC50 (TIP1): 750 nM
